Test results as given in patent US20200095280A1, “Methods of using GM6 in diagnosing and treating Alzheimers disease” (Genervon Biopharmaceuticals LLC, priority 2016, published 2020).
Where no end group is shown, it is not given here.

Assay: Blood brain barrier transit: ELISA of brain homogenate after IV injection
Assay type: in vivo, C57BL6 mice
Conditions: single bolus IV 0.2 and 2.0 mg/kg, four hours; vs control P=0.0001
Description: The ability to transit to the brain was tested. C57BL6 mice were injected with a single bolus IV tail vein injection of GM6 at 0.2 and 2.0 mg/kg. At four hours, the animals were sacrificed, and half of the brain was frozen for ELISA analysis.

FSRYAR [GM6, FSRYAR]
GM6 in brain homogenate supernatant (ELISA): detected GM6 at statistically significant levels
